Here are results for 22 compounds from PMC9460261, “Need for a Standardized Translational Drug Development Platform: Lessons Learned from the Repurposing of Drugs for COVID-19” (Microorganisms, 2022).

The subject of experiment [1] is SARS-CoV-2 in human airway epithelial cells at air-liquid interface. Format: cell-based, SARS-CoV-2_B.1.1.7.
The test system of experiment [2] is SARS-CoV-2 in Mucilair human airway epithelia. Format: cell-based, SARS-CoV-2 BavPat1/2020.
The subject of experiment [3] is SARS-CoV-2 in human airway epithelial cells at air-liquid interface. Set-up: method as in earlier work. Particulars: 4 dpi, cited from earlier work.

Structures can show the parent of a compound that is named as a salt. Where two headings read alike, the source gives them in different places.

`Nc1c(Br)cc(Br)cc1CN[C@H]1CC[C@H](O)CC1` [Ambroxol, ambroxol]: the “Log Viral Load Reduction (Compared to Virus Control and Background), HAEC/ALI (alpha variant)” value in experiment [1] is given as “–1.0 (+-0.71) log”. Take `CCN(CC)Cc1cc(Nc2ccnc3cc(Cl)ccc23)ccc1O` [Amodiaquine, amodiaquine]: the “Log Viral titer Reduction (Compared to Virus Control), HAEC/ALI (BavPat variant)” value in experiment [2] (10 uM, […]) is given as -0.51 (+-1.60) log. Consider `COC(=O)N[C@H](C(=O)N[C@@H](Cc1ccccc1)[C@@H](O)CN(Cc1ccc(-c2ccccn2)cc1)NC(=O)[C@@H](NC(=O)OC)C(C)(C)C)C(C)(C)C` [Atazanavir, atazanavir], for which, in experiment [2] (10 uM, […]), the “Log Viral titer Reduction (Compared to Virus Control), HAEC/ALI (BavPat variant)” value was 0.09 (+-0.64) log.

On to `CN(C)C(=O)COC(=O)Cc1ccc(OC(=O)c2ccc(NC(=N)N)cc2)cc1` [Camostat mesylate, camostat mesylate], for which, in experiment [1], the “Activity, HAEC/ALI (alpha variant)” value is on record as “YES”; the “Log Viral Load Reduction (Compared to Virus Control and Background), HAEC/ALI (alpha variant)” value is above 1.7 log.

As to `COc1ccc2cc1Oc1ccc(cc1)C[C@H]1c3c(cc4c(c3Oc3cc5c(cc3OC)CCN(C)[C@@H]5C2)OCO4)CCN1C` [Cepharanthine, cepharanthine], the “Log Viral Load Reduction (Compared to Virus Control and Background), HAEC/ALI (alpha variant)” value in experiment [1] is 0.92 (+-0.97) log. For `COc1cc2c(c(OC)c1OC)-c1ccc(OC)c(=O)cc1[C@@H](NC(C)=O)CC2` [Colchicine, colchicine], in experiment [1], the “Log Viral Load Reduction (Compared to Virus Control and Background), HAEC/ALI (alpha variant)” value is given as -0.2 (+-0.44) log. In the case of `COC(=O)N[C@H](C(=O)N1CCC[C@H]1c1nc(-c2ccc(-c3ccc(-c4c[nH]c([C@@H]5CCCN5C(=O)[C@@H](NC(=O)OC)C(C)C)n4)cc3)cc2)c[nH]1)C(C)C` [Daclatasvir, daclatasvir], the “Log Viral Load Reduction (Compared to Virus Control and Background), HAEC/ALI (alpha variant)” value in experiment [1] (10 uM, […]) is given as 0.17 (+-0.84) log. Turning to `O=c1nc(NO)ccn1[C@@H]1O[C@H](CO)[C@@H](O)[C@H]1O` [EIDD-1931], the “Log Viral Load Reduction (Compared to Virus Control and Background), HAEC/ALI (alpha variant)” value is “+Inc” in experiment [1] and “+Inc” in experiment [1] (10 uM, […]).

Take `NC(=O)c1nc(F)c[nH]c1=O` [Favipiravir, favipiravir]: the “Log Viral Load Reduction (Compared to Virus Control and Background), HAEC/ALI (alpha variant)” value in experiment [1] (300 uM, […]) is -0.4 (+/-0.2) log. Turning to `CNCCC(Oc1ccc(C(F)(F)F)cc1)c1ccccc1` (stereo not shown) [Fluoxetine, fluoxetine], in experiment [1], the “Log Viral Load Reduction (Compared to Virus Control and Background), HAEC/ALI (alpha variant)” value is given as -0.12 (+-0.10). Further, in experiment [2], the “Log Viral titer Reduction (Compared to Virus Control), HAEC/ALI (BavPat variant)” value is 0.68 (+-0.11). Consider `COCCCC/C(=N\OCCN)c1ccc(C(F)(F)F)cc1` [Fluvoxamine maleate, fluvoxamine maleate], for which, in experiment [1] (10 uM, […]), the “Log Viral Load Reduction (Compared to Virus Control and Background), HAEC/ALI (alpha variant)” value is “+Inc”. In experiment [2] (10 uM, […]), the “Log Viral titer Reduction (Compared to Virus Control), HAEC/ALI (BavPat variant)” value was 0.2(+-0.1) log.

For the compound `OC(c1cc(C(F)(F)F)nc2c(C(F)(F)F)cccc12)C1CCCCN1` (stereo not shown) [Mefloquine, mefloquine], the “Log Viral Load Reduction (Compared to Virus Control and Background), HAEC/ALI (alpha variant)” value in experiment [1] (10 uM, […]) is reported as 0.45 (+-2.02) log. `CC(C)C(=O)OC[C@H]1O[C@@H](n2ccc(NO)nc2=O)[C@H](O)[C@@H]1O` [Molnupiravir, molnupiravir]: the “Log Viral Load Reduction (Compared to Virus Control and Background), HAEC/ALI (alpha variant)” value in experiment [1] is recorded as 1.9 (+-1.3) log; in experiment [1] (10 uM, […]), 5.4 (+-1.5) log. In addition, the “Activity, HAEC/ALI (alpha variant)” value in experiment [1] (3 uM, […], § variability observed) is recorded as “YES”; in experiment [1] (10 uM, […]) it was “YES”. Moreover, the “Activity, HAEC/ALI (BavPat variant)” value in experiment [2] is recorded as “YES”. Besides, the “Log Viral titer Reduction (Compared to Virus Control), HAEC/ALI (BavPat variant)” value in experiment [2] (0.3 uM, […]) is reported as -0.39 (+-0.48) log. As for `Cc1c(O)cccc1C(=O)N[C@@H](CSc1ccccc1)[C@H](O)CN1C[C@H]2CCCC[C@H]2C[C@H]1C(=O)NC(C)(C)C` [Nelfinavir, nelfinavir], in experiment [1] (10 uM, […]), the “Activity, HAEC/ALI (alpha variant)” value was “YES”; the “Log Viral Load Reduction (Compared to Virus Control and Background), HAEC/ALI (alpha variant)” value was 3.2 (+-1.4) log.

On to `CC(C)(C)[C@H](NC(=O)C(F)(F)F)C(=O)N1C[C@H]2[C@@H]([C@H]1C(=O)N[C@H](C#N)C[C@@H]1CCNC1=O)C2(C)C` [Nirmatrelvir, nirmatrelvir], for which the “Log Viral Load Reduction (Compared to Virus Control and Background), HAEC/ALI (alpha variant)” value in experiment [3] (0.03 uM) was -0.30 (+-0.41) log; in experiment [3] (0.1 uM), 1.9 (+-1.6) log; in experiment [3] (1 uM), above 3.8 log. Besides, the “Activity, HAEC/ALI (alpha variant)” value is “YES” in experiment [3] (0.1 uM, § variability observed) and “YES” in experiment [3] (1 uM). For the compound `CC(=O)Oc1ccccc1C(=O)Nc1ncc([N+](=O)[O-])s1` [Nitazoxanide, nitazoxanide], in experiment [2], the “Activity, HAEC/ALI (BavPat variant)” value is listed as “Yes” and the “Log Viral titer Reduction (Compared to Virus Control), HAEC/ALI (BavPat variant)” value is listed as -1.59 (+-0.72) log.

With `CC(=O)CCCCn1c(=O)c2c(ncn2C)n(C)c1=O` [Pentoxyfilline, pentoxyfilline], the “Log Viral titer Reduction (Compared to Virus Control), HAEC/ALI (BavPat variant)” value in experiment [2] (10 uM, […]) is listed as 0.17(+-0.32) log.

As for `CCCN(CCC)S(=O)(=O)c1ccc(C(=O)O)cc1` [Probenecid, probenecid], in experiment [1] (10 uM, […]), the “Log Viral Load Reduction (Compared to Virus Control and Background), HAEC/ALI (alpha variant)” value was 0.34 (+-1.0) log. Consider `CC1(C)C(=O)N(c2ccc(C#N)c(C(F)(F)F)c2F)C(=S)N1c1ccc(CCCc2ncco2)nc1` [Proxalutamide, proxalutamide], for which the “Log Viral titer Reduction (Compared to Virus Control), HAEC/ALI (BavPat variant)” value in experiment [2] (10 uM, […]) is on record as 0.11 (+-0.6) log. For `CC(C)OC(=O)[C@H](C)N[P@](=O)(OC[C@H]1O[C@@H](n2ccc(=O)[nH]c2=O)[C@](C)(F)[C@@H]1O)Oc1ccccc1` [Sofosbuvir, sofosbuvir], the “Log Viral Load Reduction (Compared to Virus Control and Background), HAEC/ALI (alpha variant)” value in experiment [1] (10 uM, […]) is given as -0.56 (+-0.10) log. With bemnifosbuvir, in experiment [1], the “Log Viral Load Reduction (Compared to Virus Control and Background), HAEC/ALI (alpha variant)” value is reported as -0.35 (+-1.2) log. Moreover, the “Log Viral titer Reduction (Compared to Virus Control), HAEC/ALI (BavPat variant)” value in experiment [2] (0.1 uM, […]) was -0.12 (+-0.4) log; in experiment [2] (0.3 uM, […]), -0.38 (+-0.18) log. As to ivermectin, in experiment [1] (10 uM, […]), the “Activity, HAEC/ALI (alpha variant)” value is listed as “Toxic”; the “Log Viral Load Reduction (Compared to Virus Control and Background), HAEC/ALI (alpha variant)” value was above 4.09 log.
